Laboratory results as given in patent US9650415B2, “Uric acid-lowering agent” (Suntory Holdings Limited, priority 2014, dated 2017).

Columns and labels:
hyperuricemic mice = experiment: action of lowering serum uric acid levels for hyperuricemic mice (potassium oxonate model); type: in vivo, BALBc mice; conditions: FIG. 2
Method: As to the animals used, male 7-week old BALBc mice were purchased from CLEA Japan, Inc., and subjected to an experiment after a one-week period of conditioning. The animals were bred in a breeding room with air-conditioning facilities (temperature: 23.5°±1.0° C., humidity: 55±10 RH %, the number of ventilation: 12 to 15 times/hour, illuminated: from 7:00 to 19:00 each day). During the period of conditioning, the mice were allowed to take a commercially available feed (CE-2, manufactured by CLEA Japan, Inc.) and distilled water ad libitum.
Oxonic acid is a substance that raises a blood uric acid level by inhibiting a urikase, a metabolic enzyme for uric acid. In view of the above, potassium oxonate (PO) was administered, thereby generating hyperuricemic model animals (see, Planta Med 2009; 75:302-306). […] In all the groups that include PO administration, PO previously suspended in a 0.5% aqueous CMC-Na solution was administered at a concentration of 250 mg/kg, and Normal Group was administered with a 0.5% aqueous CMC-Na solution, each being administered intraperitoneally. […] After 2 hours from the administration with PO, the blood was collected from the abdominal vena cava under anesthesia. After blood removal, the liver was harvested. The collected blood was allowed to stand at room temperature for 45 minutes, and centrifuged at 8,000 rpm for 10 minutes to recover sera. Here, the sera and the liver were preserved at −80° C. until the measurements were carried out.
The serum uric acid level was measured using 7180 Clinical Analyzer (manufactured by Hitachi Technologies).
The actions of lowering serum uric acid levels of soybean peptide heat-treated products were studied using hyperuricemic model animals, in the same manner as in Test Example 2. […] For each of the above-mentioned groups, the administration and the blood collection were carried out in the same manner as in Test Example 2 to measure a serum uric acid level. Here, the mixture of the 8 kinds of cyclic dipeptides prepared by using synthesized products of Cyclo(Ser-Tyr), Cyclo(Tyr-Gly), Cyclo(Tyr-Tyr), Cyclo(Phe-Tyr), Cyclo(Leu-Tyr), Cyclo(Val-Tyr), Cyclo(Ile-Tyr), and Cyclo(Asn-Tyr), in amounts to be contained in the soybean peptide heat-treated product, was used.
The actions of lowering serum uric acid levels of soybean peptide heat-treated products according to dose were studied using hyperuricemic model animals, in the same manner as in Test Example 3. […] For each of the above-mentioned groups, the administration and the blood collection were carried out in the same manner as in Test Example 2 to measure a serum uric acid level.

xanthine oxidase (XO) = experiment: in vitro xanthine oxidase (XO) inhibiting action; type: biochemical; conditions: 4 U/L XO in PBS pH 7.5, xanthine substrate, absorbance at 295 nm after 30 minutes; mean±standard error
Method: The in vitro xanthine oxidase (XO) inhibiting action was studied on 210 kinds of cyclic dipeptides, linear dipeptides Tyr-Gly and Gly-Tyr, and an amino acid Tyr. […] Thereafter, 20 μL of a 250 μM xanthine solution previously dissolved in the PBS was added thereto, and the absorbance after 30 minutes was measured using a spectrophotometer (Synegy HT, manufactured by Bio Tek). The XO inhibition rate (%) at each concentration was calculated by the following calculation formula, to obtain activities of inhibiting XO (IC50 values). […] [formula] • wherein A: the absorbance of an enzyme-added, sample-non-added group at 295 nm; • B: the absorbance of an enzyme-non-added, sample-non-added group at 295 nm; • C: the absorbance of an enzyme-added, sample-added group at 295 nm; and • D: the absorbance of an enzyme-non-added, sample-added group at 295 nm.

Row | IC50 (xanthine oxidase (XO)) [µM] | SMILES | further results
1 | – | Oc1ncnc2[nH]ncc12 [Allopurinol, reference compound] | serum uric acid level, effect versus PO Group (hyperuricemic mice; 1 mg/kg oral): significant difference
2 | 113 ± 11.4 | NC(=O)CC1NC(=O)C(Cc2ccc(O)cc2)NC1=O (centres unmarked) [Cyclo(Asn-Tyr), cycloasparaginyltyrosine] | –
3 | 172 ± 13.5 | O=C(O)CC1NC(=O)C(Cc2ccc(O)cc2)NC1=O (centres unmarked) [Cyclo(Asp-Tyr), cycloaspartyltyrosine] | –
4 | 22.2 ± 0.8 | O=C1NC(Cc2ccc(O)cc2)C(=O)NC1Cc1ccccc1 (centres unmarked) [Cyclo(Phe-Tyr), cyclophenylalanyltyrosine] | –
5 | – | O=C1CNC(=O)C(Cc2ccc(O)cc2)N1 (centres unmarked) [Cyclo(Tyr-Gly), cyclotyrosylglycine] | serum uric acid level, effect versus PO Group (hyperuricemic mice; 30 mg/kg oral): significant difference; serum uric acid level, effect versus PO Group (hyperuricemic mice; 100 mg/kg oral): significant difference; action of lowering serum uric acid level (hyperuricemic mice; Cyclo(Tyr-Gly) 10, 30, 100 mg/kg oral, PO 250 mg/kg i.p.): has an action of lowering a uric acid level in a dose-dependent manner
6 | 29.5 ± 2.9 | O=C1NC(Cc2ccc(O)cc2)C(=O)NC1Cc1ccc(O)cc1 (centres unmarked) [Cyclo(Tyr-Tyr), cyclotyrosyltyrosine] | –
